The experiment deals with T1, FXR-LBD (FXR-WT; stabilized mutant FXR-CCEE) (Homo sapiens, UniProt Q96RI1).
T1 construct: gene NR1H4; plasmid from Prof; Jinsong Liu; CCEE = C432E/C466E
T1 sequence (Q96RI1 225-472 isoform Q96RI1-2): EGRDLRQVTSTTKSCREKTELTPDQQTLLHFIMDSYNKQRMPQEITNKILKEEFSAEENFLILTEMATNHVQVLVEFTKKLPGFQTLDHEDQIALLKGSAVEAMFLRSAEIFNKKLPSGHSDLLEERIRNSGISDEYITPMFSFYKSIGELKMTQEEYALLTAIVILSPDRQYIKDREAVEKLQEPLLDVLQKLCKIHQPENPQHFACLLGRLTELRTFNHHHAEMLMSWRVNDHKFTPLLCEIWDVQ
Description: intrinsic fluorescence titration, Stern-Volmer. Type of experiment: binding. The conditions noted are these: […] protein, phosphate pH […] NaCl, […] glycerol, […] °C; no inner filter correction. From the text:
intrinsic fluorescence titration, Stern-Volmer on FXR-LBD (FXR-WT; stabilized mutant FXR-CCEE) | With GG, the numbers for the FXR-WT and the FXR-CCEE mutant were quite different

Consider `C/C=C1\C(=O)C[C@H]2[C@@H]3CCC4=CC(=O)CC[C@]4(C)[C@H]3CC[C@]12C` [guggulsterone], for which the “Stern-Volmer constant (KSV)” value amounted to 33650 ± 5000 L/mol.

Source of the values: paper PMC11173301, “On the Cholesterol Raising Effect of Coffee Diterpenes Cafestol and 16-O-Methylcafestol: Interaction with Farnesoid X Receptor” (International Journal of Molecular Sciences, 2024).
